How the values were obtained:
Experiment in all cases: cells
[1] = test system: DOHH-2; format: functional, cell-based, Homo sapiens; conditions: Homo sapiens, DOHH-2;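 further: growth inhibition of human DOHH-2 cells, read out with a cell viability assay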
Description: SANGER: Inhibition of human DOHH-2 cell growth in a cell viability assay.

[2] = test system: DU-4475; format: functional, cell-based, Homo sapiens; conditions: Homo sapiens, DU-4475
Description: SANGER: Inhibition of human DU-4475 cell growth in a cell viability assay.

[3] = test system: DoTc2-4510; format: functional, cell-based; conditions: Homo sapiens
[4] = test system: ES4; format: functional, cell-based, Homo sapiens; conditions: Homo sapiens, ES4;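 further: growth inhibition of human ES4 cells, read out by a cell viability assay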
Description: SANGER: Inhibition of human ES4 cell growth in a cell viability assay.

[5] = test system: HCC2157; format: functional, cell-based, Homo sapiens; conditions: Homo sapiens, HCC2157;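 further: growth inhibition of the cancer cell line, read out as cell viability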
Description: SANGER: Inhibition of human HCC2157 cell growth in a cell viability assay.

[6] = test system: HCE-T; format: functional, cell-based, Homo sapiens; conditions: Homo sapiens, HCE-T;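 further: cell viability assay read-out, reporting inhibition of HCE-T cell growth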
Description: SANGER: Inhibition of human HCE-T cell growth in a cell viability assay.

[7] = test system: HD-MY-Z; format: functional, cell-based, Homo sapiens; conditions: Homo sapiens, HD-MY-Z;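 further: growth inhibition of HD-MY-Z cells, read out with a cell viability assay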
Description: SANGER: Inhibition of human HD-MY-Z cell growth in a cell viability assay.

[8] = test system: HH; format: functional, cell-based, Homo sapiens; conditions: Homo sapiens, HH
Description: SANGER: Inhibition of human HH cell growth in a cell viability assay.

[9] = test system: IA-LM; format: functional, cell-based; conditions: Homo sapiens;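 further: cell viability assay measuring growth inhibition of human IA-LM cells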
Description: SANGER: Inhibition of human IA-LM cell growth in a cell viability assay.

[10] = test system: IST-MES1; format: functional, cell-based, Homo sapiens; conditions: Homo sapiens, IST-MES1;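 further: growth inhibition of IST-MES1 cells, measured with a cell viability assay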
Description: SANGER: Inhibition of human IST-MES1 cell growth in a cell viability assay.

[11] = test system: IST-SL1; format: functional, cell-based, Homo sapiens; conditions: Homo sapiens, IST-SL1;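 further: growth inhibition of human IST-SL1 cells, read out with a cell viability assay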
Description: SANGER: Inhibition of human IST-SL1 cell growth in a cell viability assay.

[12] = test system: JAR; format: functional, cell-based, Homo sapiens; conditions: Homo sapiens, JAR;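 further: growth inhibition of human JAR cells determined with a cell viability assay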
Description: SANGER: Inhibition of human JAR cell growth in a cell viability assay.

[13] = test system: JVM-2; format: functional, cell-based, Homo sapiens; conditions: Homo sapiens, JVM-2;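 further: growth inhibition of JVM-2 cells determined by a cell viability assay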
Description: SANGER: Inhibition of human JVM-2 cell growth in a cell viability assay.

[14] = test system: KM-H2; format: functional, cell-based, Homo sapiens; conditions: Homo sapiens, KM-H2;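 further: growth inhibition of KM-H2 cells, read out by a cell viability assay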
Description: SANGER: Inhibition of human KM-H2 cell growth in a cell viability assay.

[15] = test system: KURAMOCHI; format: functional, cell-based, Homo sapiens; conditions: Homo sapiens, KURAMOCHI;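 further: growth inhibition of KURAMOCHI cells, read out with a cell viability assay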
Description: SANGER: Inhibition of human KURAMOCHI cell growth in a cell viability assay.

[16] = test system: L-363; format: functional, cell-based, Homo sapiens; conditions: Homo sapiens, L-363
Description: SANGER: Inhibition of human L-363 cell growth in a cell viability assay.

[17] = test system: LAMA-84; format: functional, cell-based, Homo sapiens; conditions: Homo sapiens, LAMA-84;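 further: growth inhibition of LAMA-84 cells, read out with a cell viability assay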
Description: SANGER: Inhibition of human LAMA-84 cell growth in a cell viability assay.

[18] = test system: LB2241-RCC; format: functional, cell-based, Homo sapiens; conditions: Homo sapiens, LB2241-RCC;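 further: cell viability assay measuring how strongly the cultured human renal carcinoma line is prevented from growing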
Description: SANGER: Inhibition of human LB2241-RCC cell growth in a cell viability assay.

[19] = test system: LOX IMVI; format: functional, cell-based, Homo sapiens; conditions: Homo sapiens, LOX IMVI
Description: SANGER: Inhibition of human LOXIMVI cell growth in a cell viability assay.

[20] = test system: LS-513; format: functional, cell-based, Homo sapiens; conditions: Homo sapiens, LS-513
Description: SANGER: Inhibition of human LS-513 cell growth in a cell viability assay.

[21] = test system: MHH-PREB-1; format: functional, cell-based, Homo sapiens; conditions: Homo sapiens, MHH-PREB-1;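 further: cell viability assay measuring inhibition of proliferation of human MHH-PREB-1 cells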
Description: SANGER: Inhibition of human MHH-PREB-1 cell growth in a cell viability assay.

[22] = test system: MONO-MAC-6; format: functional, cell-based, Homo sapiens; conditions: Homo sapiens, MONO-MAC-6;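 further: cell viability assay measuring growth inhibition of human MONO-MAC-6 cells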
Description: SANGER: Inhibition of human MONO-MAC-6 cell growth in a cell viability assay.

[23] = test system: MV4-11; format: functional, cell-based, Homo sapiens, MV-4-11; conditions: Homo sapiens, MV4-11;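 further: cell viability readout measuring growth inhibition of human MV-4-11 cells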
Description: SANGER: Inhibition of human MV-4-11 cell growth in a cell viability assay.

[24] = test system: MZ7-mel; format: functional, cell-based, Homo sapiens; conditions: Homo sapiens, MZ7-mel;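 further: growth inhibition of human MZ7-mel cells, measured by a cell viability assay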
Description: SANGER: Inhibition of human MZ7-mel cell growth in a cell viability assay.

[25] = test system: Mo; format: functional, cell-based, Homo sapiens; conditions: Homo sapiens, Mo
Description: SANGER: Inhibition of human Mo-T cell growth in a cell viability assay.

[26] = test system: NCI-H1155; format: functional, cell-based, Homo sapiens; conditions: Homo sapiens, NCI-H1155;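 further: cell growth inhibition measured by a viability assay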
Description: SANGER: Inhibition of human NCI-H1155 cell growth in a cell viability assay.

[27] = test system: NCI-H1299; format: functional, cell-based; conditions: Homo sapiens;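 further: growth inhibition of human NCI-H1299 cells, read out by a cell viability assay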
Description: SANGER: Inhibition of human NCI-H1299 cell growth in a cell viability assay.

[28] = test system: NCI-H1650; format: functional, cell-based, Homo sapiens; conditions: Homo sapiens, NCI-H1650;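 further: growth inhibition of human NCI-H1650 cells measured by a cell viability assay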
Description: SANGER: Inhibition of human NCI-H1650 cell growth in a cell viability assay.

[29] = test system: NCI-H226; format: functional, cell-based, Homo sapiens; conditions: Homo sapiens, NCI-H226;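 further: cell viability read-out used to gauge growth inhibition of the cells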
Description: SANGER: Inhibition of human NCI-H226 cell growth in a cell viability assay.

[30] = test system: NCI-H23; format: functional, cell-based, Homo sapiens; conditions: Homo sapiens, NCI-H23;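 further: cell viability assay measuring growth inhibition of NCI-H23 cells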
Description: SANGER: Inhibition of human NCI-H23 cell growth in a cell viability assay.

[31] = test system: NCI-H720; format: functional, cell-based, Homo sapiens; conditions: Homo sapiens, NCI-H720;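 further: growth inhibition of human NCI-H720 cells determined by a cell viability assay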
Description: SANGER: Inhibition of human NCI-H720 cell growth in a cell viability assay.

[32] = test system: NCI-N87; format: functional, cell-based; conditions: Homo sapiens;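 further: growth inhibition of human NCI-N87 cells, read out with a cell viability assay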
Description: SANGER: Inhibition of human NCI-N87 cell growth in a cell viability assay.

[33] = test system: SNU-5; format: functional, cell-based, Homo sapiens; conditions: Homo sapiens, SNU-5;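 further: cell viability readout used to measure growth inhibition in human NCI-SNU-5 cells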
Description: SANGER: Inhibition of human NCI-SNU-5 cell growth in a cell viability assay.

[34] = test system: NH-12; format: functional, cell-based, Homo sapiens; conditions: Homo sapiens, NH-12;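 further: growth inhibition of NH-12 cells, read out with a cell viability assay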
Description: SANGER: Inhibition of human NH-12 cell growth in a cell viability assay.

[35] = test system: ONS-76; format: functional, cell-based, Homo sapiens; conditions: Homo sapiens, ONS-76;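 further: growth inhibition of human ONS-76 cells, read out with a cell viability assay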
Description: SANGER: Inhibition of human ONS-76 cell growth in a cell viability assay.

[36] = test system: OS-RC-2; format: functional, cell-based, Homo sapiens; conditions: Homo sapiens, OS-RC-2;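 further: growth inhibition of human OS-RC-2 cells, measured by a cell viability assay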
Description: SANGER: Inhibition of human OS-RC-2 cell growth in a cell viability assay.

[37] = test system: RPMI-8866; format: functional, cell-based, Homo sapiens; conditions: Homo sapiens, RPMI-8866
Description: SANGER: Inhibition of human RPMI-8866 cell growth in a cell viability assay.

[38] = test system: SBC-1; format: functional, cell-based, Homo sapiens; conditions: Homo sapiens, SBC-1;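 further: cell viability assay measuring growth inhibition of the SBC-1 cell line, IC50 being the concentration that halves growth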
Description: SANGER: Inhibition of human SBC-1 cell growth in a cell viability assay.

[39] = test system: SCC-15; format: functional, cell-based, Homo sapiens; conditions: Homo sapiens, SCC-15;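 further: growth inhibition of SCC-15 cells, read out with a cell viability assay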
Description: SANGER: Inhibition of human SCC-15 cell growth in a cell viability assay.

[40] = test system: SK-N-FI; format: functional, cell-based, Homo sapiens; conditions: Homo sapiens, SK-N-FI;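 further: cell viability assay measuring growth inhibition of human SK-N-FI cells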
Description: SANGER: Inhibition of human SK-N-FI cell growth in a cell viability assay.

[41] = test system: SK-PN-DW; format: functional, cell-based, Homo sapiens; conditions: Homo sapiens, SK-PN-DW;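 further: growth inhibition measured with a viability assay on these cells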
Description: SANGER: Inhibition of human SK-PN-DW cell growth in a cell viability assay.

[42] = test system: SK-UT-1; format: functional, cell-based, Homo sapiens; conditions: Homo sapiens, SK-UT-1;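 further: growth inhibition of SK-UT-1 cells, measured by a cell viability assay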
Description: SANGER: Inhibition of human SK-UT-1 cell growth in a cell viability assay.

[43] = test system: 697; format: functional, cell-based, Homo sapiens; conditions: Homo sapiens
Description: SANGER: Inhibition of human 697 cell growth in a cell viability assay.

[44] = test system: 8-MG-BA; format: functional, cell-based, Homo sapiens; conditions: Homo sapiens, 8-MG-BA;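 further: growth inhibition of 8-MG-BA cells, read out with a cell viability assay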
Description: SANGER: Inhibition of human 8-MG-BA cell growth in a cell viability assay.

[45] = test system: A498; format: functional, cell-based, Homo sapiens; conditions: Homo sapiens, A498;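 further: growth inhibition of human A498 cells, read out with a cell viability assay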
Description: SANGER: Inhibition of human A498 cell growth in a cell viability assay.

[46] = test system: ACN; format: functional, cell-based, Homo sapiens; conditions: Homo sapiens, ACN;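 further: growth inhibition of the human ACN cell line, read out via cell viability testing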
Description: SANGER: Inhibition of human ACN cell growth in a cell viability assay.

[47] = test system: BB30-HNC; format: functional, cell-based, Homo sapiens; conditions: Homo sapiens, BB30-HNC;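 further: growth inhibition of the cultured cell line, read out by a cell viability assay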
Description: SANGER: Inhibition of human BB30-HNC cell growth in a cell viability assay.

[48] = test system: C8166; format: functional, cell-based, Homo sapiens; conditions: Homo sapiens, C8166;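 further: growth inhibition of human C8166 cells measured by a cell viability assay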
Description: SANGER: Inhibition of human C8166 cell growth in a cell viability assay.

[49] = test system: no-10; format: functional, cell-based, Homo sapiens; conditions: Homo sapiens;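 further: growth inhibition of no-10 cells, read out with a cell viability assay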
Description: SANGER: Inhibition of human no-10 cell growth in a cell viability assay.

[50] = test system: CCRF-CEM; format: functional, cell-based, Homo sapiens; conditions: Homo sapiens, CCRF-CEM;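 further: inhibition of CCRF-CEM cell growth, measured by a cell viability assay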
Description: SANGER: Inhibition of human CCRF-CEM cell growth in a cell viability assay.

## OC[C@H](Cc1ccccc1)Nc1nc(Oc2ccc3c(c2)CCC3)nc2c1ncn2Cc1ccc(-c2ccccc2)cc1
[1]
  IC50: > 10200 nM
[2]
  IC50: 1630 nM
[3]
  IC50: > 10200 nM
[4]
  IC50: 8510 nM
[5]
  IC50: > 10200 nM
[6]
  IC50: > 10200 nM
[7]
  IC50: > 10200 nM
[8]
  IC50: > 10200 nM
[9]
  IC50: 5910 nM
[10]
  IC50: > 10200 nM
[11]
  IC50: > 10200 nM
[12]
  IC50: > 10200 nM
[13]
  IC50: > 10200 nM
[14]
  IC50: > 10200 nM
[15]
  IC50: 3820 nM
[16]
  IC50: 6660 nM
[17]
  IC50: > 10200 nM
[18]
  IC50: > 10200 nM
[19]
  IC50: > 10200 nM
[20]
  IC50: > 10200 nM
[21]
  IC50: > 10200 nM
[22]
  IC50: > 10200 nM
[23]
  IC50: 5510 nM
[24]
  IC50: 8890 nM
[25]
  IC50: > 10200 nM
[26]
  IC50: > 10200 nM
[27]
  IC50: > 10200 nM
[28]
  IC50: > 10200 nM
[29]
  IC50: > 10200 nM
[30]
  IC50: > 10200 nM
[31]
  IC50: > 10200 nM
[32]
  IC50: > 10200 nM
[33]
  IC50: > 10200 nM
[34]
  IC50: > 10200 nM
[35]
  IC50: 8580 nM
[36]
  IC50: > 10200 nM
[37]
  IC50: > 10200 nM
[38]
  IC50: > 10200 nM
[39]
  IC50: > 10200 nM
[40]
  IC50: > 10200 nM
[41]
  IC50: 5480 nM
[42]
  IC50: > 10200 nM
[43]
  IC50: 3320 nM
[44]
  IC50: 3540 nM
[45]
  IC50: > 10200 nM
[46]
  IC50: 6010 nM
[47]
  IC50: 3920 nM
[48]
  IC50: > 10200 nM
[49]
  IC50: > 10200 nM
[50]
  IC50: 5760 nM

## C/C(=C\c1csc(C)n1)[C@@H]1C[C@@H]2O[C@]2(C)CCC[C@H](C)[C@H](O)[C@@H](C)C(=O)C(C)(C)[C@@H](O)CC(=O)O1 [PATUPILONE]
[1]
  IC50: 8.37 nM
[2]
  IC50: 2.38 nM
[3]
  IC50: 0.846 nM
[4]
  IC50: 0.739 nM
[5]
  IC50: 1.28 nM
[6]
  IC50: 4.07 nM
[7]
  IC50: 23.3 nM
[8]
  IC50: 9.8 nM
[9]
  IC50: 0.393 nM
[10]
  IC50: > 32 nM
[11]
  IC50: 6.37 nM
[12]
  IC50: > 32 nM
[13]
  IC50: > 32 nM
[14]
  IC50: 9.06 nM
[15]
  IC50: 6.05 nM
[16]
  IC50: 5.88 nM
[17]
  IC50: 18.9 nM
[18]
  IC50: 5.55 nM
[19]
  IC50: > 32 nM
[20]
  IC50: > 32 nM
[21]
  IC50: 7.51 nM
[22]
  IC50: 17.4 nM
[23]
  IC50: 1.7 nM
[24]
  IC50: 17.1 nM
[25]
  IC50: > 32 nM
[26]
  IC50: > 32 nM
[27]
  IC50: 0.88 nM
[28]
  IC50: 9.54 nM
[29]
  IC50: > 32 nM
[30]
  IC50: 23.8 nM
[31]
  IC50: > 32 nM
[32]
  IC50: 30.3 nM
[33]
  IC50: 30.4 nM
[34]
  IC50: 0.891 nM
[35]
  IC50: 4.1 nM
[36]
  IC50: 1.21 nM
[37]
  IC50: 19.8 nM
[38]
  IC50: > 32 nM
[39]
  IC50: 5.98 nM
[40]
  IC50: > 32 nM
[41]
  IC50: 1.06 nM
[42]
  IC50: 0.892 nM
[43]
  IC50: 1.78 nM
[44]
  IC50: 4.78 nM
[45]
  IC50: > 32 nM
[46]
  IC50: 1.07 nM
[47]
  IC50: 0.201 nM
[48]
  IC50: 31.7 nM
[49]
  IC50: 5.56 nM
[50]
  IC50: 2.94 nM

Source: ChEMBL document CHEMBL1201861, “Genomics of Drug Sensitity in Cancer screening data, Wellcome Trust Sanger Institute”
